From patent publication US10596296B2, “Heparan sulphates” (Agency for Science, Technology and Research, priority 2014, dated 2020) come the findings set out here.

The subject of test [1] is chondrogenic differentiation of hMSCs. Nature of the test: qPCR of chondrogenic micromass pellets (Example 2). In kind it is cell-based, human. Particulars: for SOX9 expression / COMP expression: day 3. How it is done:
Total RNA was isolated from chondrogenic micromass pellets using TRIZOL reagent (Life Technologies, CA, USA) according to the manufacturer's protocol. Reverse transcription was carried out on 1 μg RNA using the SuperScript® VILO™ cDNA Synthesis Kit (Life Technologies) following the manufacturer's instructions, with the incubation at 42° C. being carried out for 2 h instead of 1 h. Each qPCR contained 40 ng cDNA, 1 μL TaqMan® primer-probe mix per gene, and 10 μL Taqman® Fast Universal PCR Master Mix (Life Technologies) in a final volume of 20 μL. Thermal cycling conditions were 95° C. for 20 s, followed by 45 cycles of 95° C. for 1 s and 60° C. for 20 s. Each qPCR was run in duplicate and gene expression was normalised to HPRT1 expression to obtain the ΔCt value. The average value of biological triplicates was taken. Chondrogenic micromass pellets cultured in media without GAG or TGF-β1 were used as controls (ΔΔCt). Relative expression levels for each primer set were expressed as fold changes by the 2-ΔΔCt method [Livak, K. J. and T. D. Schmittgen, Analysis of Relative Gene Expression Data Using Real-Time Quantitative PCR and the 2-ΔΔCT Method. Methods, 2001. 25(4): p. 402-408]. The following TaqMan® primer-probe assays (Life technologies) were used:
In order to assess the effects of HS16+ve on the chondrogenic differentiation of hMSCs in vitro, it was first necessary to establish the effects of TGF-β1 alone. Chondrogenic differentiation was carried out using a modified micromass culture system. [Zhang, L., et al., Chondrogenic differentiation of human mesenchymal stem cells: a comparison between micromass and pellet culture systems. Biotechnol Lett, 2010. 32(9): p. 1339-1346.]. Briefly, passage 4 hMSCs were harvested and resuspended in chemically defined chondrogenic media (PT-3003, Lonza, MD, USA) at 2×10^7 cells/mL. Droplets of 12.5 μL were then seeded into the middle of each well in a 24-well plate and left to adhere at 37° C. for 2 h, after which, 500 μL of chondrogenic media supplemented with either 1 or 10 ng/mL of TGF-β1 (100-210, PeproTech) alone or with either 5 or 10 μg/mL of heparin (Sigma-Aldrich), porcine mucosal HS (HSPM) (Celsus laboratories), HS16+ve or HS16-ve was added to each well. The cell droplets coalesced into spherical masses after 24 h. Media was changed every 3 days and the micromasses harvested on days 3, 7, 14 and 21.
Next, hMSCs were differentiated for 21 days in the presence of 1 ng/mL TGF-β1 alone (1 TGF-β1) or in combination with 10 μg/mL of GAG (heparin, HSPM, HS16+ve or HS16−ve) or with 10 ng/mL TGF-β1 (10 TGF-β1) as a positive control.
For orientation: Quantitative PCR measures a nucleic acid by following its amplification.

Another test deals with T1, TGF-β1 (Homo sapiens, UniProt P01137).
T1 construct: full length mature TGF-β1 is 112 amino acids in length
Put plainly: GAG-binding plate assay. Particulars: wells coated with 5 μg/ml GAG; TGF-β1 100, 200 or 400 ng/ml. How it is done:
GAGs are immobilized in each well and then challenged with TGF-β1 according to the manufacturer's instructions. Briefly, triplicate wells are first pre-coated with 5 μg/ml of heparin, HS^PM, HS16^+ve or HS16^−ve in standard assay buffer (SAB: 100 mM NaCl, 50 mM sodium acetate, 0.2% v/v Tween 20, pH 7.2), and then incubated overnight at room temperature. The plates are next washed carefully three times with SAB, blocked with 250 μl of blocking solution (0.4% w/v fish skin gelatine, Sigma-Aldrich, in SAB) and incubated for 1 h at 37° C. TGF-β1 was then dissolved in blocking solution at a concentration of 100, 200, or 400 ng/ml. The plates are washed three times with SAB and each dilution of protein (200 μl) is dispensed into triplicate wells and incubated for 2 h at 37° C., rinsed with SAB and 200 μl of 750 ng/ml monoclonal mouse anti-TGF-β1 antibody (MAB2401, R&D Systems) added in blocking solution. Plates are then incubated for 1 h at 37° C., washed with SAB, and 200 μl of 1 μg/ml polyclonal goat anti-mouse biotinylated antibody (ab6788, Abcam) added in blocking solution. Again, plates are incubated for 1 h at 37° C., washed with SAB, and 200 μl of 220 ng/ml ExtrAvidin AP (Sigma-Aldrich) is added in blocking solution, incubated for 30 min at 37° C., and then rinsed with SAB. Finally, 200 μl of development reagent (SigmaFAST p-Nitrophenyl phosphate, Sigma-Aldrich) is added, incubated at 37° C. for 40 min and read at 405 nm within 1 h.
To determine the ability of TGF-β1 to bind to heparin, we utilized positively-charged GAG-binding plates (Iduron) as a capture substrate. GAGs were immobilized in each well and then challenged with TGF-β1 according to the manufacturer's instructions. Briefly, triplicate wells were first pre-coated with 5 μg/ml of full length heparin, size-fractionated heparin (dp14, 16, 18, 20, 22 and 24) or selectively […] heparin prepared in standard assay buffer (SAB: 100 mM NaCl, 50 mM sodium acetate, 0.2% v/v Tween 20, pH 7.2), and then incubated overnight at room temperature. The plates were next washed carefully three times with SAB, blocked with 250 μl of blocking solution (0.4% w/v fish skin gelatine, Sigma-Aldrich, in SAB) and incubated for 1 h at 37° C. TGF-β1 was then dissolved in blocking solution at a concentration of 100, 200, or 400 ng/ml. The plates were washed three times with SAB and each dilution of protein (200 μl) was dispensed into triplicate wells and incubated for 2 h at 37° C., rinsed with SAB and 200 μl of 750 ng/ml monoclonal mouse anti-TGF-β1 antibody (MAB2401, R&D Systems) added in blocking solution. […] Finally, 200 μl of development reagent (SigmaFAST p-Nitrophenyl phosphate, Sigma-Aldrich) was added, incubated at 37° C. for 40 min and read at 405 nm within 1 h.

[2] abbreviates: 10 μg/mL heparin with 10 ng/mL TGF-β1.

T1 sequence (P01137 279-390 limits assumed): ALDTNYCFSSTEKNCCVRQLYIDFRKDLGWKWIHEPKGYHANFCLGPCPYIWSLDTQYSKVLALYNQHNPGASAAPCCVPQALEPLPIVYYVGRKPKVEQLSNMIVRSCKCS

On to heparin, for which the “COMP expression increase relative to 1 ng/mL TGF-β1 alone” value in test [1] (21 days, 1 ng/mL TGF-β1 with 10 μg/mL GAG) is reported as approximately 2.5 fold. Besides, the SOX9 expression entry in test [1] (5 μg/mL heparin, regardless of the amount of TGF-β1) is listed as “did not significantly alter”; in test [1] (10 μg/mL heparin on its own), “did not affect SOX9 expression”; in test [1] (10 μg/mL heparin with 1 ng/mL TGF-β1) it was “increase the expression of SOX9”; in test [1] (setting [2]) it was “unable to bring about any change in SOX9 expression”. Further, the COMP expression result in test [1] (setting [2]) is on record as “reduced COMP expression levels”; in test [1] (5 or 10 μg/mL heparin on their own), “slightly reduce”; in test [1] (either dose of heparin with 10 ng/mL TGF-β1) it was “unable to elicit a further increase in COMP expression”; in test [1] (heparin with 1 ng/mL TGF-β1), “increase COMP expression levels in a dose dependent manner”. For the same substance, the Aggrecan expression entry in test [1] (day 21, 1 ng/mL TGF-β1 with 10 μg/mL GAG) was “similar”. Further, the “TGF-β1 binding to immobilized GAG” value at TGF-β1 is on record as “bound in a dose-dependent manner”.
